Test results as given in publication PMC6264186, “Development of a Highly Sensitive and Specific Immunoassay for Determining Chrysoidine, A Banned Dye, in Soybean Milk Film” (Molecules, 2011).
In brackets after ≈: the same amount, converted by molar mass.

Legend:
[1] = system: polyclonal Ab 2 (antibody to chrysoidine, from Hapten 2); assay: indirect competitive ELISA (icELISA) with polyclonal Ab 2; assay type: binding, New Zealand white rabbits; conditions: for Cross-reactivity / IC50: polyclonal Ab 2, coating antigen Hapten 1-OVA; for Cross-reactivity: CR = IC50(chrysoidine)/IC50(interferent) x 100
Experimental: Specificity of the optimized assay was tested by measuring the cross-reactivity using a group of structurally related dyes. Twenty-four compounds were selected for testing the cross-reactivity (CR) (Table 1). The CR was calculated as follows: CR(%) = [IC50(chrysoidine) / IC50(interferent)] × 100.

[2] = system: polyclonal Ab 2 (antibody to chrysoidine, from Hapten 2); assay: as above; assay type: binding, New Zealand white rabbits; conditions: coating antigen Hapten 2-OVA 17 ng/mL, Ab 2 dilution 10000 (homologous)
[3] = system: Ab 1 (antibody to chrysoidine, from Hapten 1); assay: indirect competitive ELISA (icELISA) with polyclonal Ab 1
Experimental: Checkerboard assays, in which antibodies were titrated against various amounts of the coating antigen, were used to measure the reactivity of antibodies and to select an appropriate antigen coating and antibody dilutions for competitive indirect assays. […] The concentrations of the antibodies and the coating antigen chosen were further optimized.
The procedure for the competitive assay was as follows. Microtiter plates were coated with hapten-OVA (100–1000 ng/mL, 100 µL/well) in carbonate-bicarbonate buffer (50 mM, pH 9.6) by overnight incubation at 4 °C. The plates were blocked with blocking solution by incubation for 3 h. Serial dilution of the analyte in methanol-PBST (1:9, v:v, 50 µL/well) were added, followed by 50 µL/well of antibody diluted (1/1,000–1/10,000) with PBST solution. After incubation for about 30–60 min, 100 µL/well of a diluted (1/10,000) goat anti-rabbit IgG-HRP was added. The mixture was incubated for 60 min, and 100 µL/well of a TMB solution was added. The reaction was stopped after an appropriate time (typically 8 min) by adding 10% (v:v) H2SO4 (50 µL), and the absorbance was read at 450 nm.

[4] = coating antigen Hapten 1-OVA 20 ng/mL, Ab 1 dilution 8000 (homologous)
[5] = coating antigen Hapten 2-OVA 20 ng/mL, Ab 1 dilution 20000 (heterologous)
[6] = coating antigen Hapten 1-OVA 20 ng/mL, Ab 2 dilution 4000 (heterologous)

Row | IC50 ([1]; class symbol ND) | Compound | Cross-reactivity [1] | further results
1 | > 13.3 µM | O=[N+]([O-])c1ccc(N=Nc2c(O)ccc3ccccc23)cc1 [1-(4-nitrophenyl-azo)-2-naphthol] | ≤0.01% | –
2 | – | O=C(O)C1=NN(c2ccc(S(=O)(=O)O)cc2)C(=O)C1/N=N/c1ccc(S(=O)(=O)O)cc1 (centres unmarked) [Acid Yellow 23] | 0.04% | IC50 [1]: 3.05 µM
3 | > 13.3 µM | COc1cc(S(=O)(=O)O)c(C)cc1/N=N/c1c(O)ccc2cc(S(=O)(=O)O)ccc12 [Allura Red] | ≤0.01% | –
4 | > 13.3 µM | O=S(=O)(O)c1ccc2c(/N=N/c3ccc(S(=O)(=O)O)c4ccccc34)c(O)c(S(=O)(=O)O)cc2c1 [Amaranth] | ≤0.01% | –
5 | – | CN(C)c1ccc(C(=N)c2ccc(N(C)C)cc2)cc1 [Auramine O] | 0.2% | IC50 [1]: 0.798 µM
6 | > 13.3 µM | O=S(=O)(O)c1ccc(/N=N/c2cc(S(=O)(=O)O)c3ccccc3c2O)c2ccccc12 [Azorubine] | ≤0.01% | –
7 | > 13.3 µM | CCN(Cc1cccc(S(=O)(=O)O)c1)c1ccc(C(=C2C=CC(=[N+](CC)Cc3cccc(S(=O)(=O)O)c3)C=C2)c2ccc(O)cc2S(=O)(=O)[O-])cc1 [Brilliant blue-85] | ≤0.01% | –
8 | > 13.3 µM | Cc1c(C(=O)O)c(O)cc2c1C(=O)c1c(O)c([C@@H]3O[C@H](CO)[C@@H](O)[C@H](O)[C@H]3O)c(O)c(O)c1C2=O [Carminic acid] | ≤0.01% | –
9 | – | Nc1ccc(/N=N/c2ccccc2)c(N)c1 [Chrysoidine] | 100.0% | IC50 [2]: 10.6 ng/mL (≈ 0.0499 µM); LOD (10% inhibitory concentration) [2]: 3.8 ng/mL; IC50 [3, 4]: 7.4 ng/mL (≈ 0.0349 µM); LOD (10% inhibitory concentration) [3, 4]: 0.8 ng/mL; IC50 [3, 5]: 1.6 ng/mL (≈ 0.00754 µM); LOD (10% inhibitory concentration) [3, 5]: 0.4 ng/mL; IC50 (50% inhibitory concentration) [1, 6]: 0.33 ng/mL (≈ 0.00155 µM); LOD (10% inhibitory concentration) [1, 6]: 0.04 ng/mL; LOD (10% inhibitory concentration) ([1]; coating antigen Hapten 1-OVA 20 ng/mL, Ab 2 dilution 4000 (heterologous), listed as chrysoidine): ≤ 0.04 ng/mL; limit of quantitation (LOQ, 20%-80% inhibitory concentration) ([1]; coating antigen Hapten 1-OVA, Ab 2 (heterologous)): 0.09 to 4.9 ng/mL; IC50 [1]: 0.00133 µM
10 | > 13.3 µM | O=C1OC2(c3ccccc31)c1cc(I)c(O)c(I)c1Oc1c2cc(I)c(O)c1I [Erythrosine] | ≤0.01% | –
11 | – | Nc1ccc(N=Nc2ccc(C(=O)O)cc2)c(N)c1 [Hapten1, 4-((2,4-Diaminophenyl)diazenyl)benzoic acid] | 169.8% | IC50 [1]: 0.00078 µM; Cross-reactivity ([1]; listed as Hapten 1): 170%
12 | – | Nc1ccc(N=Nc2ccc(CC(=O)O)cc2)c(N)c1 [Hapten2, 2-(4-((2,4-Diaminophenyl)diazenyl)phenyl)acetic acid] | 127.0% | IC50 [1]: 0.00105 µM; Cross-reactivity ([1]; listed as Hapten 2): 127%
13 | > 13.3 µM | O=C1/C(=C2\Nc3ccccc3C2=O)Nc2ccccc21 [Indigo] | ≤0.01% | –
14 | > 13.3 µM | Nc1nc(N)nc(N)n1 [Melamine] | ≤0.01% | –
15 | > 13.3 µM | O=S(=O)(O)c1ccc(/N=N/c2ccc(Nc3ccccc3)cc2)cc1 [Orange yellow] | ≤0.01% | –
16 | – | O=S(=O)(O)c1ccc(/N=N/c2ccc(O)c3ccccc23)cc1 [Orangeim] | 0.1% | IC50 [1]: 1.12 µM; Cross-reactivity ([1]; listed as orangeim): 0.12%
17 | > 13.3 µM | O=C1OC2(c3ccc(Cl)cc3Oc3cc(Cl)ccc32)c2ccccc21 [Reddish orange] | ≤0.01% | –
18 | > 13.3 µM | Oc1ccc2ccccc2c1/N=N/c1ccccc1 [Sudan Red I] | ≤0.01% | –
19 | > 13.3 µM | O=S(=O)(O)c1ccc(/N=N/c2c(O)ccc3cc(S(=O)(=O)O)ccc23)cc1 [Sunset yellow] | ≤0.01% | –
20 | > 13.3 µM | O=C(O)C1=NN(c2ccc(S(=O)(=O)O)cc2)C(=O)C1/N=N/c1ccc(S(=O)(=O)O)cc1 (centres unmarked) [Tartrazine] | ≤0.01% | –
21 | > 13.3 µM | Acid Red 94 | ≤0.01% | –
22 | > 13.3 µM | Carmine | ≤0.01% | –

Row | Compound | IC50 ([1]; class symbol ND) | Cross-reactivity [1] | further results
23 | Cc1ccc([N+](=O)[O-])cc1N [Scarlet Base G] | > 13.3 µM | ≤0.01% | –
